Results: US20230174486A1, “NON-LYSOSOMAL GLUCOSYLCERAMIDASE INHIBITORS AND USES THEREOF” (ALECTOS THERAPEUTICS lNC., priority 2020, published 2023)

What was measured:
human GBA2 = target: T1, human GBA2 (Homo sapiens, UniProt Q9HCG7); assay: Inhibition of GBA2 in cell lysate (4-methylumbelliferone-β-D glucopyranoside substrate); type: biochemical; settings: homogenate of HEK293T cells stably overexpressing human GBA2, pH 5.5, 37° C., GCase inhibitor present
T1 construct: cellular homogenate
T1 sequence (Q9HCG7 1-927): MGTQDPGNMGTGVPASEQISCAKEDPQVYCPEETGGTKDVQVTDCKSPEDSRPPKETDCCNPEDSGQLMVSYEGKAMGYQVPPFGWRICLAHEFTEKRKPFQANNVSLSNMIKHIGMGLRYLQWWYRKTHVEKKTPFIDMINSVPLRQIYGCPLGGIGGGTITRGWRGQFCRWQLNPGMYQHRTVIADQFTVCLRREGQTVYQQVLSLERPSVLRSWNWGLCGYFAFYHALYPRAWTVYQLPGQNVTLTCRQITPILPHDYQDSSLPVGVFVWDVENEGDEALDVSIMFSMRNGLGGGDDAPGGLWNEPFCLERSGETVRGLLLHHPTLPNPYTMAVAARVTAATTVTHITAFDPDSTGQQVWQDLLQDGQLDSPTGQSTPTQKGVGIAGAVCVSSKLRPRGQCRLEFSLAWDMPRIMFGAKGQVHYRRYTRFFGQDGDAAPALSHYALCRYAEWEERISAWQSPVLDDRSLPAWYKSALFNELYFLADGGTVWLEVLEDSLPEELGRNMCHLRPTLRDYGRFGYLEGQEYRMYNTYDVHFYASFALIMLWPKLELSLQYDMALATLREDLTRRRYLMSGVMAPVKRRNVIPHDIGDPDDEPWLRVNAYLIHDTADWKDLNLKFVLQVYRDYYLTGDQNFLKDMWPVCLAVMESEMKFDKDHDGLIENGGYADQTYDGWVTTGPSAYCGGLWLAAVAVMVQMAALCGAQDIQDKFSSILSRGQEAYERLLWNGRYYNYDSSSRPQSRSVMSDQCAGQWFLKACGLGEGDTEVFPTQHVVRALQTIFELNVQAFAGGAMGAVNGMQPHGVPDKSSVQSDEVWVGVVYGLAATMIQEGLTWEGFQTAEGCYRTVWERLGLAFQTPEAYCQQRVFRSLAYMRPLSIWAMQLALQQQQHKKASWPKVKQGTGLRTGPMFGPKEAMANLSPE
Experimental: Stable GBA2-expressing HEK293T cells were generated as follows. The PCR-amplified human GBA2 (GBA2 nucleotide accession number BC011363) using the following primers: Sense 5’---CGCAAATGGGCGGTAGGCGTG---3’ and antisense 5’---TAGTCAGCCATGGGGCGGAGA ---3’) was cloned into pLenti-GIII-CMV by ABM Inc. The correctness of the construct was verified by sequencing. Lentivirus particles containing GBA2 in the pLenti-GIII-CMV plasmid were prepared using a third Generation Virus Packaging Mix (ABM cat# LV053-G074) in HEK293T cells and supplied as a virus particle suspension. The virus suspension was used for infection of HEK293T cells. Cell populations stably expressing human GBA2 were selected using puromycin for several weeks as determined by activity assays and western blot.
Various concentrations of test compounds were prepared in DMSO and then diluted into buffer consisting of 100 mM citric acid, 200 mM disodium phosphate with 1% v/v C10E6, pH 5.5. Cellular homogenates (0.25 mg/mL) of the stable HEK293T-overexpressing GBA2 cell line were preincubated for 10 min on ice with an inhibitor of GCase (20 µM (6R,7R,8S)-8-ethyl-4-azaspiro[2.5]octane-6,7-diol). The reaction solution consisted of 20 µL of 750 µM 4-methylumbelliferone-β-D glucopyranoside in 5% DMSO in the same buffer, 20 µL of GBA2-cellular homogenate pre-treated with (6R,7R,8S)-8-ethyl-4-azaspiro[2.5]octane-6,7-diol and 20 µL of various concentrations of test compound in 10% DMSO in the same buffer. The final concentrations in the reaction were 0.083 mg/mL GBA2-cellular homogenate, 250 µM 4-methylumbelliferone-β-D glucopyranoside, and various concentrations of inhibitor. The inhibitor and GBA2-cellular homogenate were preincubated together for 5 min at 37° C. The reaction was initiated by addition of substrate and allowed to proceed for 20 min at 37° C. to assess GBA2 activity. Reactions were stopped by the addition of an equal volume (60 µL) of 0.5 M NaOH, 0.3 M glycine, pH 10.5. Fluorescence was measured on a Biotek Synergy H4 plate reader at wavelengths of 365 nm for excitation and 450 nm for emission. Incubations without added enzyme or added inhibitors were used to define no enzyme activity and maximal enzyme activity, respectively. IC50 values were determined by fitting the data to a log[inhibitor concentration] versus response curve using GraphPad Prism. IC50 values were calculated as the concentration of inhibitor required to inhibit GBA2 activity by 50%.

[1] = target: T2, human non-lysosomal glucosylceramidase (GBA2) (Homo sapiens, UniProt Q9HCG7); assay: Binding specificity for GBA2 over other molecules (ratio of Ki or IC50 values); type: biochemical; settings: qualitative statement, no values or other enzyme given
T2 sequence (Q9HCG7 1-927): T1 sequence (Q9HCG7 1-927)
Source text: In some embodiments, one or more of the compounds according to the invention may specifically bind a GBA2. In alternative embodiments, one or more of the compounds according to the invention may specifically bind the active site of a GBA2. […] In alternative embodiments, one or more of the compounds according to the invention may specifically bind the human non-lysosomal glucosylceramidase (GBA2) over the human lysosomal glucosylceramidase (GCase) and/or the human cytosolic glucosylceramidase (GBA3). In alternative embodiments, one or more of the compounds according to the invention may specifically bind the human non-lysosomal glucosylceramidase (GBA2) over the human glucosylceramide synthase (GCS). In alternative embodiments, one or more of the compounds according to the invention may specifically bind the human non-lysosomal glucosylceramidase (GBA2) over an intestinal alpha-glucosidase, where the intestinal alpha-glucosidase may be a sucrase-isomaltase or a maltase-glucoamylase.

SMILES	GBA2 IC50 (human GBA2)	binding specificity, Ki(other molecule)/Ki(GBA2) or IC50(other molecule)/IC50(GBA2) [1]
OC[C@@H]1[C@@H](O)[C@H](O)[C@@H](O)CN1CCc1ccc(C(F)(F)F)cc1 [Example 6, (2R,3R,4R,5S)-2-(hydroxymethyl)-1-(4-(trifluoromethyl)phenethyl)piperidine-3,4,5-triol]	∗∗∗	–
OC[C@@H]1[C@@H](O)[C@H](O)[C@@H](O)CN1CCc1cccs1 [Example 10, (2R,3R,4R,5S)-2-(hydroxymethyl)-1-(2-(thiophen-2-yl)ethyl)piperidine-3,4,5-triol]	∗∗∗	–
OC[C@@H]1[C@@H](O)[C@H](O)[C@@H](O)CN1CCc1ccsc1 [Example 11, (2R,3R,4R,5S)-2-(hydroxymethyl)-1-(2-(thiophen-3-yl)ethyl)piperidine-3,4,5-triol]	∗∗∗	–
OC[C@H]1[C@@H](O)[C@H](O)[C@@H](O)CN1C[C@H]1CC[C@H](C(F)(F)F)CC1 [Example 13, (2S,3R,4R,5S)-2-(hydroxymethyl)-1-(((1r,4R)-4-(trifluoromethyl)cyclohexyl)methyl)piperidine-3,4,5-triol]	∗∗∗	enhanced binding specificity
CC(C)(F)[C@H]1CC[C@@H](CN2C[C@H](O)[C@@H](O)[C@H](O)[C@@H]2CO)CC1 [Example 14, (2S,3R,4R,5S)-1-(((1s,4S)-4-(2-fluoropropan-2-yl)cyclohexyl)methyl)-2-(hydroxymethyl)piperidine-3,4,5-triol]	∗∗∗	enhanced binding specificity
OC[C@H]1[C@@H](O)[C@H](O)[C@@H](O)CN1CC1Cc2ccccc2C1 [Example 15, (2S,3R,4R,5S)-1-((2,3-dihydro-1H-inden-2-yl)methyl)-2-(hydroxymethyl)piperidine-3,4,5-triol]	∗∗∗	enhanced binding specificity
OC[C@H]1[C@@H](O)[C@H](O)[C@@H](O)CN1CCC1CCCCC1 [Example 16, (2S,3R,4R,5S)-1-(2-cyclohexylethyl)-2-(hydroxymethyl)piperidine-3,4,5-triol]	∗∗∗	enhanced binding specificity
OC[C@H]1[C@@H](O)[C@H](O)[C@@H](O)CN1CCc1cccc(Cl)c1F [Example 19, (2S,3R,4R,5S)-1-(3-chloro-2-fluorophenethyl)-2-(hydroxymethyl)piperidine-3,4,5-triol]	∗∗∗	–
OC[C@H]1[C@@H](O)[C@H](O)[C@@H](O)CN1C[C@H]1CCN(c2nc(C(F)(F)F)cs2)C1 [Example 26, (2S,3R,4R,5S)-2-(hydroxymethyl)-1—(((R)—1-(4-(trifluoromethyl)thiazol-2-yl)pyrrolidin-3-yl)methyl)piperidine-3,4,5-triol]	∗∗∗	–

The remaining lines, values ahead:

GBA2 IC50 (human GBA2)	binding specificity, Ki(other molecule)/Ki(GBA2) or IC50(other molecule)/IC50(GBA2) [1]	SMILES
∗∗∗	–	C[C@@H](CN1C[C@H](O)[C@@H](O)[C@H](O)[C@H]1CO)c1ccccc1 (single isomer, unassigned) [Example 7]
∗∗∗	enhanced binding specificity	C[C@H](CN1C[C@H](O)[C@@H](O)[C@H](O)[C@H]1CO)c1ccccc1 (single isomer, unassigned) [Example 8]
∗∗∗	–	OC[C@@H]1[C@@H](O)[C@H](O)[C@@H](O)CN1CCc1ccccc1F [Example 1, (2R,3R,4R,5S)-1-(2-fluorophenethyl)-2-(hydroxymethyl)piperidine-3,4,5-triol]
∗∗∗	–	OC[C@@H]1[C@@H](O)[C@H](O)[C@@H](O)CN1CCc1cccc(F)c1 [Example 2, (2R,3R,4R,5S)-1-(3-fluorophenethyl)-2-(hydroxymethyl)piperidine-3,4,5-triol]
∗∗∗	–	OC[C@@H]1[C@@H](O)[C@H](O)[C@@H](O)CN1CCc1ccc(F)cc1 [Example 3, (2R,3R,4R,5S)-1-(4-fluorophenethyl)-2-(hydroxymethyl)piperidine-3,4,5-triol]
∗∗∗	enhanced binding specificity	OC[C@@H]1[C@@H](O)[C@H](O)[C@@H](O)CN1CCc1c(F)cccc1F [Example 4, (2R,3R,4R,5S)-1-(2,6-difluorophenethyl)-2-(hydroxymethyl)piperidine-3,4,5-triol]
∗∗∗	–	OC[C@@H]1[C@@H](O)[C@H](O)[C@@H](O)CN1CCc1cccc(C(F)(F)F)c1 [Example 5, (2R,3R,4R,5S)-2-(hydroxymethyl)-1-(3-(trifluoromethyl)phenethyl)piperidine-3,4,5-triol]
∗∗	–	OC[C@@H]1[C@@H](O)[C@H](O)[C@@H](O)CN1CCc1ccccn1 [Example 9, (2R,3R,4R,5S)-2-(hydroxymethyl)-1-(2-(pyridin-2-yl)ethyl)piperidine-3,4,5-triol]
∗∗∗	enhanced binding specificity	OC[C@H]1[C@@H](O)[C@H](O)[C@@H](O)CN1CC1CCCCC1 [Example 12, (2S,3R,4R,5S)-1-(cyclohexylmethyl)-2-(hydroxymethyl)piperidine-3,4,5-triol]
∗∗∗	–	OC[C@H]1[C@@H](O)[C@H](O)[C@@H](O)CN1CCCC1CCCCC1 [Example 17, (2S,3R,4R,5S)-1-(3-cyclohexylpropyl)-2-(hydroxymethyl)piperidine-3,4,5-triol]
∗∗∗	–	OC[C@H]1[C@@H](O)[C@H](O)[C@@H](O)CN1CCc1ccccc1F [Example 18, (2S,3R,4R,5S)-1-(2-fluorophenethyl)-2-(hydroxymethyl)piperidine-3,4,5-triol]
∗∗∗	–	OC[C@H]1[C@@H](O)[C@H](O)[C@@H](O)CN1C[C@H]1CCCN(c2nc(C(F)(F)F)cs2)C1 [Example 30, (2S,3R,4R,5S)-2-(hydroxymethyl)-1—(((R)—1-(4-(trifluoromethyl)thiazol-2-yl)piperidin-3-yl)methyl)piperidine-3,4,5-triol]
